# Measurements taken from patent US10173991B2, “Sulfone amide linked benzothiazole inhibitors of endothelial lipase” (BRISTOL-MYERS SQUIBB COMPANY, priority 2014, dated 2019).
# Target: Endothelial lipase (EL) (Homo sapiens (Human), UniProt Q9Y5X9)
# Test: Endothelial lipase (EL) enzymatic assay with fluorescent substrate A10070 in DMPG vesicles
# Format: biochemical
# Conditions: not given
# Description: Endothelial lipase (EL) and hepatic lipase (HL) activities were measured using a fluorescent substrate, A10070, (Invitrogen, CA) doped into an artificial vesicle containing DMPG (Avanti Polar Lipids) as the excipient. Vesicles were prepared by combining 571 μL of 29 mM DMPG in a 1:1 mixture of MeOH and CHCl3 with 2000 μL of 1 mM A10070 in a 1:1 mixture of MeOH and CHCl3. The mixture was dried under nitrogen in multiple vials then resuspended in 20 mL total volume of 50 mM HEPES pH 8.0 buffer containing 50 mM NaCl and 0.2 mM EDTA. The sample was allowed to sit at room temperature for 15 min and then was sonicated 3×4 mins on ice with a Branson Sonicator using duty cycle 1. This preparation provides vesicles with a mole fraction of 0.11 for the FRET substrate.
# The enzymatic assay was measured using 384-well white Optiplates. Each well contained 20 μL of assay buffer (50 mM HEPES pH 8.0, 50 mM NaCl and 1 mM CaCl2) and 0.25 μL of a DMSO solution containing a compound of interest. EL or HL (10 μL) was added and allowed to incubate with the compound for 30 min at 37° C. The source of EL was conditioned media obtained from HT-1080 cells that were transformed using RAGE technology (Athersys) to overexpress endogenous EL, and HL was partially purified from conditioned media obtained from COS cells overexpressing HL. The reaction was started by the addition of 10 μL of a 1:10 dilution of vesicles. The final total reaction volume was […]. The reaction rates were measured on a Gemini plate reader with an excitation wavelength of 490 nm and an emission wavelength of 530 nm. Readings were taken over a period of 60 minutes, and the slope between 300 and 900 secs of the readout was used to calculate the rate of the reaction.
# Chain of Endothelial lipase (EL) (Q9Y5X9 21-500): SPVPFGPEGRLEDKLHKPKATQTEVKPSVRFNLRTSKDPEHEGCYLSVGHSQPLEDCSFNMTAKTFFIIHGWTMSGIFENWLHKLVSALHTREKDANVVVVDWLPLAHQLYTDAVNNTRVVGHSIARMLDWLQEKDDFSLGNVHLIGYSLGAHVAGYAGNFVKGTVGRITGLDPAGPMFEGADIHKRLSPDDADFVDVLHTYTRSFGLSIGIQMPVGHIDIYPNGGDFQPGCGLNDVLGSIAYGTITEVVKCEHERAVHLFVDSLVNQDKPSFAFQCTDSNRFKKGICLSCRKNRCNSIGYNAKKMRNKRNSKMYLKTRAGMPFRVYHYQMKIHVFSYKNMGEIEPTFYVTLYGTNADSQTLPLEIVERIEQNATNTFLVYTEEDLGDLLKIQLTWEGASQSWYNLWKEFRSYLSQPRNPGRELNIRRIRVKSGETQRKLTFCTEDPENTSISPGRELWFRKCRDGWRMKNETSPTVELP
row,Structure (SMILES),IC50
1,"O=C(CNC(=O)C(c1nc2cc(F)c(-c3ccc(NC(=O)OCc4ccccc4)cc3)cc2s1)S(=O)(=O)CCCC(F)(F)F)NC1CC1 (centres unmarked) [Example 46, benzyl N-{4-[2-({[(cyclopropyl-carbamoyl)methyl]carbamoyl}(4,4,4-trifluorobutane-sulfonyl)methyl)-5-fluoro-1,3-benzothiazol-6-yl]phenyl}carbamate]",2 nM
2,"N#CCS(=O)(=O)C(C(=O)NCC(=O)NC1CC1)c1nc2cc(F)c(-c3ccc(NC(=O)OCc4ccccc4)cc3)cc2s1 (centres unmarked) [Example 47, benzyl N-(4-{2-[(cyanomethane-sulfonyl) ({[(cyclopropyl-carbamoyl)methyl]carbamoyl}methyl]-5-fluoro-1,3-benzothiazol-6-yl}phenyl) carbamate]",2 nM
3,"CCCCCS(=O)(=O)C(C(=O)NCC(=O)NC1CC1)c1nc2cc(F)c(-c3ccc(NC(=O)OCc4ccccc4)cc3)cc2s1 (centres unmarked) [Example 48, benzyl N-{4-[2-({[(cyclopropyl-carbamoyl)methyl]carbamoyl} (pentane-1-sulfonyl)methyl)-5-fluoro-1,3-benzothiazol-6-yl]phenyl}carbamate]",1 nM
4,"CC(C)CS(=O)(=O)C(C(=O)NCC(=O)NC1CC1)c1nc2cc(F)c(-c3ccc(NC(=O)OCc4ccccc4)cc3)cc2s1 (centres unmarked) [Example 49, benzyl N-{4-[2-({[(cyclopropyl-carbamoyl)methyl]carbamoyl}(2-methylpropane-sulfonyl)methyl)-5-fluoro-1,3-benzothiazol-6-yl]phenyl}carbamate]",3 nM
5,"O=C(CNC(=O)C(c1nc2cc(F)c(-c3ccc(NC(=O)OCc4ccccc4)cc3)cc2s1)S(=O)(=O)C1CC1)NC1CC1 (centres unmarked) [Example 50, benzyl N-(4-{2-[(cyclopropane-sulfonyl) ({[(cyclopropyl-carbamoyl)methyl]carbamoyl}methyl]-5-fluoro-1,3-benzothiazol-6-yl}phenyl) carbamate]",3 nM
6,"O=C(CNC(=O)C(c1nc2cc(F)c(-c3ccc(NC(=O)OCc4ccccc4)cc3)cc2s1)S(=O)(=O)CC1CC1)NC1CC1 (centres unmarked) [Example 51, benzyl N-{4-[2-({[(cyclopropyl-carbamoyl)methyl]carbamoyl} (cyclopropyl-methanesulfonyl)methyl)-5-fluoro-1,3-benzothiazol-6-yl]phenyl} carbamate]",3 nM
7,"CCCS(=O)(=O)C(C(=O)NCC(=O)NC1CC1)c1nc2cc(F)c(-c3ccc(NC(=O)OCc4ccccc4)cc3)cc2s1 (centres unmarked) [Example 52, benzyl N-{4-[2-({[(cyclopropyl-carbamoyl)methyl]carbamoyl} (propane-1-sulfonyl)methyl)-5-fluoro-1,3-benzothiazol-6-yl]phenyl} carbamate]",1 nM
8,"CCCCS(=O)(=O)C(C(=O)NCC(=O)NC1CC1)c1nc2cc(F)c(-c3ccc(NC(=O)OCc4ccccc4)cc3)cc2s1 (centres unmarked) [Example 53, benzyl N-(4-{2-[(butane-1-sulfonyl) ({[(cyclopropyl-carbamoyl)methyl]carbamoyl})methyl]-5-fluoro-1,3-benzothiazol-6-yl}phenyl) carbamate]",2 nM
9,"O=C(CNC(=O)C(c1nc2cc(F)c(-c3ccc(NC(=O)OCc4ccccc4)cc3)cc2s1)S(=O)(=O)CC1CCCCC1)NC1CC1 (centres unmarked) [Example 54, benzyl N-(4-{2-[cyclohexyl-methanesulfonyl ({[(cyclopropyl-carbamoyl)methyl]carbamoyl})methyl]-5-fluoro-1,3-benzothiazol-6-yl}phenyl) carbamate]",1 nM
10,"O=C(CNC(=O)C(c1nc2ccc(-c3ccc(F)nc3)cc2s1)S(=O)(=O)CCC(F)(F)F)NC1CC1 (centres unmarked) [Example 56, N-[(cyclopropyl-carbamoyl)methyl]-2-[6-(6-fluoropyridin-3-yl)-1,3-benzothiazol-2-yl]-2-(3,3,3-trifluoropropane-sulfonyl)acetamide]",29 nM

# Same assay, conditions: EL from conditioned media of HT-1080 cells; 30 min preincubation at 37° C.
row,Structure (SMILES),IC50
1,"O=C(CNC(=O)C(c1nc2ccc(-c3ccc(F)nc3)cc2s1)S(=O)(=O)Cc1ccccc1)NC1CC1 (centres unmarked) [Example 55, N-[(Cyclopropylcarbamoyl)methyl]-2-[6-(6-fluoropyridin-3-yl)-1,3-benzothiazol-2-yl]-2-phenylmethanesulfonylacetamide]",26 nM
